Laboratory results taken from PubChem BioAssay (NCI).
Several values for one entry are separate records, joined by “and”; a condition that tells them apart may be missing. Equal entries are not always repeated.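 48-hour exposure; five concentrations; linearly interpolated endpoints. GI50 = concentration required for 50% inhibition of growth. TGI is the concentration that stops growth completely.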

How the values were obtained:
Test in all cases: growth of human tumour cells (NCI), 48 h
MALME-3M melanoma = system: MALME-3M melanoma
786-0 renal = system: 786-0 renal
ACHN renal = system: ACHN renal
SF-539 CNS = system: SF-539 CNS
UO-31 renal = system: UO-31 renal
COLO 205 colon = system: COLO 205 colon
OVCAR-3 ovarian = system: OVCAR-3 ovarian
DLD-1 colon = system: DLD-1 colon
DMS 114 small cell lung = system: DMS 114 small cell lung
NCI-H226 lung = system: NCI-H226 lung

CNC(=O)OCc1cc2ccncc2c2c1[nH]c1ccccc12
TGI (MALME-3M melanoma): > 100 µM | TGI (786-0 renal): > 100 µM | TGI (ACHN renal): > 100 µM | TGI (SF-539 CNS): > 100 µM | TGI (UO-31 renal): > 100 µM | TGI (COLO 205 colon): > 100 µM | TGI (OVCAR-3 ovarian): > 100 µM | TGI (DLD-1 colon): > 100 µM | TGI (DMS 114 small cell lung): > 100 µM | TGI (NCI-H226 lung): > 100 µM

CC1OC(n2cc(I)c(=O)[nH]c2=O)C=CC1=O (stereo not drawn)
TGI (MALME-3M melanoma): 28.5 µM | TGI (786-0 renal): 26.9 µM | TGI (ACHN renal): 31.5 µM | TGI (SF-539 CNS): 27.5 µM | TGI (UO-31 renal): 30.5 µM | TGI (COLO 205 colon): 30.7 µM | TGI (OVCAR-3 ovarian): 31.5 µM | TGI (DLD-1 colon): 26 µM | TGI (DMS 114 small cell lung): 31 µM | TGI (NCI-H226 lung): 32.3 µM

COc1cc2c3c(c1OCc1ccccc1)NCCC3NCC2 (stereo not drawn)
TGI (MALME-3M melanoma): > 100 µM | TGI (786-0 renal): > 100 µM | TGI (SF-539 CNS): > 100 µM | TGI (UO-31 renal): > 100 µM | TGI (COLO 205 colon): > 100 µM | TGI (OVCAR-3 ovarian): > 100 µM | TGI (DLD-1 colon): > 100 µM | TGI (DMS 114 small cell lung): > 100 µM | TGI (NCI-H226 lung): > 100 µM

NC(=O)OCC(COc1ccc(Cl)cc1)OC(=O)c1cc([N+](=O)[O-])cc([N+](=O)[O-])c1 (stereo not drawn)
TGI (MALME-3M melanoma): > 100 µM | TGI (786-0 renal): > 100 µM | TGI (ACHN renal): > 100 µM | TGI (SF-539 CNS): > 100 µM | TGI (UO-31 renal): > 100 µM | TGI (COLO 205 colon): > 100 µM | TGI (OVCAR-3 ovarian): > 100 µM | TGI (DLD-1 colon): > 100 µM | TGI (DMS 114 small cell lung): 53.8 µM | TGI (NCI-H226 lung): > 100 µM

O=[N+]([O-])c1cc([N+](=O)[O-])c(C(Cl)C(Cl)c2ccccc2)cc1C(Cl)C(Cl)c1ccccc1 (stereo not drawn)
TGI (MALME-3M melanoma): 3.31 µM | TGI (786-0 renal): 3.12 µM | TGI (ACHN renal): 3.55 µM | TGI (SF-539 CNS): 3.33 µM | TGI (UO-31 renal): 2.93 µM | TGI (COLO 205 colon): 3.18 µM | TGI (OVCAR-3 ovarian): 5.06 µM | TGI (DLD-1 colon): 3.27 µM | TGI (DMS 114 small cell lung): 3.34 µM | TGI (NCI-H226 lung): 5.18 µM

CN1CCN(CCCN2c3ccccc3Sc3ccc(C(F)(F)F)cc32)CC1
GI50 (MALME-3M melanoma): 1.69 µM | TGI (MALME-3M melanoma): 3.28 µM and 3.66 µM and 6.98 µM | GI50 (786-0 renal): 1.78 µM | TGI (786-0 renal): 3.33 µM and 16.1 µM and 21.6 µM | GI50 (ACHN renal): 2.1 µM | TGI (ACHN renal): 4.67 µM and 23.3 µM and 24.7 µM | GI50 (SF-539 CNS): 1.94 µM | TGI (SF-539 CNS): 4.12 µM and 18.6 µM and 20.1 µM | GI50 (UO-31 renal): 2.31 µM | TGI (UO-31 renal): 12 µM and 19.3 µM and 17.6 µM | GI50 (COLO 205 colon): 1.64 µM and 1.8 µM and 3.87 µM | TGI (COLO 205 colon): 3.15 µM and 3.65 µM and 9.3 µM | GI50 (OVCAR-3 ovarian): 1.93 µM and 6.26 µM and 13.8 µM | TGI (OVCAR-3 ovarian): 3.76 µM and 20.4 µM and 27 µM | TGI (DLD-1 colon): 26.9 µM | TGI (DMS 114 small cell lung): 23.4 µM | GI50 (NCI-H226 lung): 2.16 µM | TGI (NCI-H226 lung): 6.41 µM and 32.8 µM and 32.2 µM

CCOC(=O)NN(C(=O)OCC)C(C(=O)c1ccc(Cl)cc1)=C1NCCN1
TGI (MALME-3M melanoma): > 100 µM | TGI (786-0 renal): > 100 µM | TGI (ACHN renal): > 100 µM | TGI (SF-539 CNS): > 100 µM | TGI (UO-31 renal): > 100 µM | TGI (COLO 205 colon): > 100 µM | TGI (OVCAR-3 ovarian): > 100 µM | TGI (DLD-1 colon): > 100 µM | TGI (DMS 114 small cell lung): > 100 µM | TGI (NCI-H226 lung): > 100 µM

O=C(NCCCCCCNC(=O)NC1OCC(O)C(O)C1O)NC1OCC(O)C(O)C1O (stereo not drawn)
TGI (MALME-3M melanoma): > 100 µM | TGI (786-0 renal): > 100 µM | TGI (ACHN renal): > 100 µM | TGI (SF-539 CNS): > 100 µM | TGI (COLO 205 colon): > 100 µM | TGI (OVCAR-3 ovarian): > 100 µM | TGI (DLD-1 colon): > 100 µM | TGI (DMS 114 small cell lung): > 100 µM | TGI (NCI-H226 lung): > 100 µM

CO[C@]12CCC(=O)N1C=Cc1c2[nH]c2ccccc12
TGI (MALME-3M melanoma): > 100 µM | TGI (786-0 renal): > 100 µM | TGI (ACHN renal): > 100 µM | TGI (SF-539 CNS): > 100 µM | TGI (UO-31 renal): > 100 µM | TGI (COLO 205 colon): > 100 µM | TGI (OVCAR-3 ovarian): > 100 µM | TGI (DLD-1 colon): > 100 µM | TGI (DMS 114 small cell lung): > 100 µM | TGI (NCI-H226 lung): > 100 µM

CC(C)N(C(=O)C12C3C4C5C3C1(C#N)C5C42)C(C)C (stereo not drawn)
TGI (MALME-3M melanoma): > 100 µM | TGI (786-0 renal): > 100 µM | TGI (ACHN renal): > 100 µM | TGI (SF-539 CNS): > 100 µM | TGI (UO-31 renal): > 100 µM | TGI (COLO 205 colon): > 100 µM | TGI (OVCAR-3 ovarian): > 100 µM | TGI (DLD-1 colon): > 100 µM | TGI (DMS 114 small cell lung): > 100 µM | TGI (NCI-H226 lung): > 100 µM

C/C=C1\C[C@@H]2C(OC)Nc3cc(O)c(OC)cc3C(=O)N2C1 (stereo partly drawn)
GI50 (MALME-3M melanoma): 0.00501 µM | TGI (MALME-3M melanoma): 0.0148 µM | GI50 (786-0 renal): 0.00529 µM | TGI (ACHN renal): 0.0294 µM | GI50 (SF-539 CNS): 0.00315 µM | TGI (SF-539 CNS): 0.00892 µM and < 0.0283 µM | GI50 (UO-31 renal): 0.00222 µM | TGI (COLO 205 colon): 0.0212 µM | GI50 (OVCAR-3 ovarian): 0.00419 µM | TGI (OVCAR-3 ovarian): 0.0341 µM | TGI (DLD-1 colon): 20 µM | TGI (DMS 114 small cell lung): 0.0035 µM | GI50 (NCI-H226 lung): 0.116 µM | TGI (NCI-H226 lung): 0.728 µM and 0.163 µM

N#CC(C(=O)C(=O)Nc1ccc(Cl)c(Cl)c1)c1ccc(Cl)cc1 (stereo not drawn)
TGI (MALME-3M melanoma): > 100 µM | TGI (786-0 renal): > 100 µM | TGI (ACHN renal): > 100 µM | TGI (SF-539 CNS): > 100 µM | TGI (UO-31 renal): > 100 µM | TGI (COLO 205 colon): > 100 µM | TGI (OVCAR-3 ovarian): > 100 µM | TGI (DLD-1 colon): > 100 µM | TGI (DMS 114 small cell lung): 45.7 µM | TGI (NCI-H226 lung): > 100 µM

CC(=O)OCc1c(C)c2ccccc2n1C(C)=O
TGI (MALME-3M melanoma): 73.7 µM | TGI (786-0 renal): > 100 µM | TGI (ACHN renal): 71 µM | TGI (SF-539 CNS): > 100 µM | TGI (UO-31 renal): > 100 µM | TGI (COLO 205 colon): > 100 µM | TGI (OVCAR-3 ovarian): 62.8 µM | TGI (DMS 114 small cell lung): 47 µM | TGI (NCI-H226 lung): > 100 µM

CN1CCc2cc(O)c3cc2C1Cc1ccc(cc1)Oc1cc(ccc1O)CC1c2c(cc4c(c2O3)OCO4)CCN1C (stereo not drawn)
TGI (786-0 renal): > 100 µM | TGI (ACHN renal): > 100 µM | TGI (SF-539 CNS): 32.6 µM | TGI (UO-31 renal): 9.46 µM | TGI (COLO 205 colon): 28.8 µM | TGI (OVCAR-3 ovarian): > 100 µM | TGI (DLD-1 colon): > 100 µM | TGI (DMS 114 small cell lung): 39.4 µM | TGI (NCI-H226 lung): 47.7 µM

CN/N=C(/CC(=O)c1sc(-n2nc(-c3ccccc3)cc2-c2ccccc2)nc1C)C(=O)Nc1ccc(Cl)c(Cl)c1
TGI (MALME-3M melanoma): > 100 µM | TGI (786-0 renal): > 100 µM | TGI (ACHN renal): > 100 µM | TGI (SF-539 CNS): > 100 µM | TGI (UO-31 renal): > 100 µM | TGI (COLO 205 colon): > 100 µM | TGI (OVCAR-3 ovarian): > 100 µM | TGI (DLD-1 colon): > 100 µM | TGI (NCI-H226 lung): > 100 µM

CCOC1=C2C(C)(CCC3[C@@]4(C)C=CC(=O)C(C)(C)C4CC(O)[C@@]23C)C(c2ccoc2)C1=O (stereo partly drawn)
TGI (786-0 renal): 39.8 µM | TGI (ACHN renal): 37.4 µM | TGI (SF-539 CNS): 41.7 µM | TGI (UO-31 renal): 29.1 µM | TGI (COLO 205 colon): 29.3 µM | TGI (OVCAR-3 ovarian): 33.4 µM | TGI (DLD-1 colon): 29.7 µM | TGI (DMS 114 small cell lung): 36.8 µM | TGI (NCI-H226 lung): 55.4 µM

O=C(CC(=O)c1cccc([N+](=O)[O-])c1)C(=O)Nc1nc([N+](=O)[O-])cs1
TGI (MALME-3M melanoma): > 100 µM | TGI (786-0 renal): > 100 µM | TGI (SF-539 CNS): > 100 µM | TGI (UO-31 renal): > 100 µM | TGI (COLO 205 colon): > 100 µM | TGI (OVCAR-3 ovarian): > 100 µM | TGI (DLD-1 colon): > 100 µM | TGI (DMS 114 small cell lung): > 100 µM | TGI (NCI-H226 lung): > 100 µM

CCC[CH2][Ge]([CH2]CCC)([CH2]CCC)[O]C(=O)C(OC(C)=O)c1ccccc1 (stereo not drawn)
GI50 (MALME-3M melanoma): 1.16 µM | TGI (MALME-3M melanoma): 19.4 µM | GI50 (786-0 renal): 6.34 µM | TGI (786-0 renal): 22.8 µM | GI50 (ACHN renal): 2.76 µM | TGI (ACHN renal): 19.8 µM | GI50 (SF-539 CNS): 7.63 µM | TGI (SF-539 CNS): 22.3 µM | GI50 (UO-31 renal): 1.5 µM | TGI (UO-31 renal): 18.5 µM | GI50 (COLO 205 colon): 6.37 µM | TGI (COLO 205 colon): 20.9 µM | GI50 (OVCAR-3 ovarian): 0.731 µM | TGI (OVCAR-3 ovarian): 8.52 µM | GI50 (DLD-1 colon): 1.76 µM | TGI (DLD-1 colon): 19 µM | GI50 (NCI-H226 lung): 0.351 µM | TGI (NCI-H226 lung): 19.7 µM
